Laboratory results reported in ChEMBL document CHEMBL1132087, “New N-substituted 7-aminocephalosporanic acid derivatives as potential agents against Streptococcus pneumoniae. Synthesis and in vitro activity” (1999).
Converted amounts (≈) assume the structure as drawn.

Columns and labels:
Type in all cases: functional
[1] = tested on: Streptococcus pneumoniae; experiment: In vitro antibacterial activity against the gram-positive bacteria, penicillin sensitive Streptococcus pneumoniae (3512)
[2] = tested on: Staphylococcus aureus; experiment: In vitro antibacterial activity against the gram-positive bacteria, penicillin sensitive Staphylococcus aureus (663E)
[3] = tested on: Staphylococcus aureus; experiment: In vitro antibacterial activity against the gram-positive bacteria, penicillin resistant Staphylococcus aureus (2672)
[4] = tested on: Streptococcus pneumoniae; experiment: In vitro antibacterial activity against the gram-positive bacteria, penicillin resistant Streptococcus pneumoniae (4635)
[5] = tested on: Staphylococcus aureus; experiment: In vitro antibacterial activity against the gram-positive bacteria, penicillin resistant Staphylococcus aureus (853)
[6] = tested on: Streptococcus pyogenes; experiment: In vitro antibacterial activity against the gram-positive bacteria, erythromycin resistant Streptococcus pyogenes
[7] = tested on: Streptococcus pneumoniae; experiment: In vitro antibacterial activity against the gram-positive bacteria, penicillin resistant Streptococcus pneumoniae (4629)
[8] = tested on: Streptococcus pneumoniae; experiment: In vitro antibacterial activity against the gram-positive bacteria, penicillin resistant Streptococcus pneumoniae (4630)
[9] = tested on: Staphylococcus aureus; experiment: In vitro antibacterial activity against the gram-positive bacteria, penicillin sensitive Staphylococcus aureus (3849)
[10] = tested on: Staphylococcus aureus; experiment: In vitro antibacterial activity against the gram-positive bacteria, penicillin sensitive Staphylococcus aureus (3072)
[11] = tested on: Streptococcus pneumoniae; experiment: In vitro antibacterial activity against the gram-positive bacteria, penicillin sensitive Streptococcus pneumoniae (3273)
[12] = tested on: Streptococcus pneumoniae; experiment: In vitro antibacterial activity against the gram-positive bacteria, penicillin sensitive Streptococcus pneumoniae (3272)
[13] = tested on: Staphylococcus aureus; experiment: In vitro antibacterial activity against the gram-positive bacteria, penicillin resistant Staphylococcus aureus (2619)
[14] = tested on: Streptococcus pneumoniae; experiment: In vitro antibacterial activity against the gram-positive bacteria, penicillin resistant Streptococcus pneumoniae (4636)

| Structure (SMILES) | MIC [1] [µg/mL] | MIC [2] [µg/mL] | MIC [3] [µg/mL] | MIC [4] [µg/mL] | MIC [5] [µg/mL] | MIC [6] [µg/mL] | MIC [7] [µg/mL] | MIC [8] [µg/mL] | MIC [9] [µg/mL] | MIC [10] [µg/mL] | MIC [11] [µg/mL] | MIC [12] [µg/mL] | MIC [13] [µg/mL] | MIC [14] [µg/mL] |
| --- | --- | --- | --- | --- | --- | --- | --- | --- | --- | --- | --- | --- | --- | --- |
| CC(=O)OCC1=C(C(=O)O)N2C(=O)[C@@H](NC(=O)CN(OCc3ccccc3Cl)C(=O)c3ccccc3)C2SC1 (stereo partly specified) | 0.25 (≈ 0.436 µM) | 1 (≈ 1.74 µM) | 8 (≈ 13.9 µM) | 16 (≈ 27.9 µM) | 1 (≈ 1.74 µM) | 0.5 (≈ 0.871 µM) | 16 (≈ 27.9 µM) | 16 (≈ 27.9 µM) | 0.5 (≈ 0.871 µM) | 1 (≈ 1.74 µM) | 0.25 (≈ 0.436 µM) | 0.25 (≈ 0.436 µM) | 4 (≈ 6.97 µM) | 32 (≈ 55.7 µM) |
| CC(=O)OCC1=C(C(=O)O)N2C(=O)[C@@H](NC(=O)CN(OCc3ccccc3)C(=O)c3ccccc3)C2SC1 (stereo partly specified) | 0.03 (≈ 0.0556 µM) | 0.5 (≈ 0.927 µM) | 8 (≈ 14.8 µM) | 8 (≈ 14.8 µM) | 1 (≈ 1.85 µM) | 0.25 (≈ 0.463 µM) | 8 (≈ 14.8 µM) | 8 (≈ 14.8 µM) | 0.5 (≈ 0.927 µM) | 1 (≈ 1.85 µM) | 0.06 (≈ 0.111 µM) | 0.06 (≈ 0.111 µM) | 2 (≈ 3.71 µM) | 16 (≈ 29.7 µM) |
| CC(=O)OCC1=C(C(=O)O)N2C(=O)[C@@H](NC(=O)CN(OCc3ccccc3)C(=O)NCc3ccccc3)C2SC1 (stereo partly specified) | 0.25 (≈ 0.44 µM) | 0.5 (≈ 0.879 µM) | 2 (≈ 3.52 µM) | 4 (≈ 7.03 µM) | 1 (≈ 1.76 µM) | 0.25 (≈ 0.44 µM) | 16 (≈ 28.1 µM) | 16 (≈ 28.1 µM) | 1 (≈ 1.76 µM) | 1 (≈ 1.76 µM) | 0.5 (≈ 0.879 µM) | 0.12 (≈ 0.211 µM) | 1 (≈ 1.76 µM) | 32 (≈ 56.3 µM) |
| CC(=O)OCC1=C(C(=O)O)N2C(=O)[C@@H](NC(=O)CN(OCc3cccc(Cl)c3)C(=O)c3ccccc3)C2SC1 (stereo partly specified) | 0.06 (≈ 0.105 µM) | 0.5 (≈ 0.871 µM) | 4 (≈ 6.97 µM) | 1 (≈ 1.74 µM) | 0.5 (≈ 0.871 µM) | 0.25 (≈ 0.436 µM) | 8 (≈ 13.9 µM) | 8 (≈ 13.9 µM) | 0.5 (≈ 0.871 µM) | 0.5 (≈ 0.871 µM) | 0.12 (≈ 0.209 µM) | 0.06 (≈ 0.105 µM) | 1 (≈ 1.74 µM) | 2 (≈ 3.48 µM) |
